Data as given in PMC9785542, “Discovery of 1-Benzhydryl-Piperazine-Based HDAC Inhibitors with Anti-Breast Cancer Activity: Synthesis, Molecular Modeling, In Vitro and In Vivo Biological Evaluation” (Pharmaceutics, 2022).

Experiments:
MDA-MB-231 tumor spheres = assay: 3D tumor sphere model, MTT and imaging; assay type: cell-based, human; settings: for tumor sphere viability: 50 µM, 72 h, formed spheres
Protocol: MDA-MB-231 cells were seeded at a cell density of 1000 c/w in 100 μL of DMEM containing 10% FCS in a low-attachment NunclonSphera 96-well ultra-low attachment plate (Thermo Scientific Nunc™, Rochester, NY, USA), to form multicellular tumor spheres, for 4 days. The formation and growth of tumor spheres were examined and imaged with an Olympus CKX53 microscope, using a 10× objective. MDA-MB-231 tumor spheres were treated by carefully adding 50 μL of the medium with fresh nutrient medium for control spheres or with compound-supplemented medium (50 μM) for treated spheres for another 72 h. The cytotoxicity of compounds toward the MDA-MB-231 tumor spheres was investigated by MTT assay.
The formation and growth of tumor spheroids were examined and imaged with an Olympus CKX53 microscope, using 4x objective. The cytotoxicity of compounds toward the MDA-MB-231 tumor spheroids was investigated by MTT assay.

MDA-MB-231 cells [1] = assay: Apoptosis assay, Annexin V-FITC/7-AAD flow cytometry; assay type: cell-based, human; settings: for early apoptotic cells: 72 h
Protocol: Examined breast cancer cells (MDA-MB-231) were stained with annexin V–fluorescein isothiocyanate/and 7AAD (BD Pharmingen, San Diego, CA, USA), and the samples were prepared following the specifications given by manufacturer. The population of apoptotic cells was analyzed by flow cytometry using a FACS Calibur cytometer and Cell Quest computer software (Becton Dickinson, Heidelberg, Germany).

MCF-7 cells = assay: Cell viability (MTT) assay, MCF-7; assay type: cell-based; settings: Homo sapiens, MCF7, 48 h, read-out: Cytotoxic activity IC50 ± SD, MCF-7
Protocol: Human breast adenocarcinoma cells (MCF-7, ATCC® HTB-22™) and triple-negative breast cancer cells (MDA-MB-231, ATCC® HTB-26™) were obtained from the American Type Culture Collection (Rockville, MD, USA). Cells were maintained as a monolayer culture in DMEM:Ham’s 12 (1:1) medium (Sigma-Aldrich, St. Louis, MO, USA) supplemented with penicillin (192 U/mL), streptomycin (200 µg/mL), and 10% of heat-inactivated fetal calf serum (FCS). Cells were grown at 37 °C in 5% CO2 and humidified air atmosphere, by twice weekly subculture.
Cytotoxic activity of synthesized 1-benzhydryl-piperazine-based HDAC inhibitors was assessed on MDA-MB-231 and MCF-7 cells using an MTT assay. MDA-MB-231 (5 × 10^3 cells/well) and MCF-7 (5 × 10^3 cells/well) were treated with synthesized compounds in six different concentrations (100, 50, 25, 12.5, 6.25, and 3.13 μM), and each concentration was added in five replicates. MTT solution (3-(4,5-dimethylthiazol-2-yl)-2,5-diphenyltetrazolium bromide) (Sigma-Aldrich, St. Louis, USA) was added to each well (20 µL) after 48 h. After 4 h of incubation, 100 μL of 10% SDS was added in each well and incubated at 37 °C. On the next day, the absorbance at 570 nm was recorded. The ratio of absorbance (570 nm) values between treated and control cells multiplied by 100 was used to calculate cell survival (%). The concentration of synthesized HDAC inhibitors that reduced cell viability by 50% was defined as the IC50 value, and was compared to the vehicle control.

[2] = target: Human recombinant HDAC-3/NcoR2 (Homo sapiens, UniProt O15379); assay: HDAC-Glo I/II bioluminogenic enzyme assay, HDAC3; assay type: biochemical; design: purchased BPS Bioscience 50003; settings: mean ± SD of three independent experiments; read-out: HDAC Inhibition, IC50 ± SD, HDAC3
[3] = target: T1, Human recombinant C-ter-His-FLAG-HDAC1 (Homo sapiens, UniProt Q13547); assay: HDAC-Glo I/II bioluminogenic enzyme assay, HDAC1; assay type: biochemical; settings: mean ± SD of three independent experiments; read-out: HDAC Inhibition, IC50 ± SD, HDAC1
T1 construct: His (C); FLAG (C); purchased BPS Bioscience 50051

MDA-MB-231 cells [4] = assay: Matrigel invasion assay; assay type: cell-based, human; settings: 24 h; 5 μM 8b, 10 μM 9b
Protocol: To determine MDA-MB-231 cell migration and invasion cell capacities, Corning® Costar® Transwell® cell culture inserts with 8.0 μm pore polycarbonate filters (Sigma Aldrich, CLS3464) and Corning™ BioCoat™ Matrigel™ Invasion Chamber with Corning Matrigel Matrix™ cell culture inserts (Thermo fisher scientific, Waltham, MA, USA) respectively were used. Briefly, 6 × 10^4 cells in 200 μL were seeded in the upper chamber and the bottom chamber was filled with 800 μL of medium. After 24 h under indicated treatments, the remaining cells in the upper chamber were gently removed with a cotton swab, moistened with medium, and the inserts were carefully washed twice with 37 °C warmed PBS. Then, attached cells at the bottom side of the membrane were fixed by immersing in ice cold methanol for 2 min and stained with 0.1% crystal violet for 15 min at room temperature. Stained cells were photographed and quantified using NIH ImageJ software.

Human recombinant HDAC-3/NcoR2, sequence (O15379 whole entry): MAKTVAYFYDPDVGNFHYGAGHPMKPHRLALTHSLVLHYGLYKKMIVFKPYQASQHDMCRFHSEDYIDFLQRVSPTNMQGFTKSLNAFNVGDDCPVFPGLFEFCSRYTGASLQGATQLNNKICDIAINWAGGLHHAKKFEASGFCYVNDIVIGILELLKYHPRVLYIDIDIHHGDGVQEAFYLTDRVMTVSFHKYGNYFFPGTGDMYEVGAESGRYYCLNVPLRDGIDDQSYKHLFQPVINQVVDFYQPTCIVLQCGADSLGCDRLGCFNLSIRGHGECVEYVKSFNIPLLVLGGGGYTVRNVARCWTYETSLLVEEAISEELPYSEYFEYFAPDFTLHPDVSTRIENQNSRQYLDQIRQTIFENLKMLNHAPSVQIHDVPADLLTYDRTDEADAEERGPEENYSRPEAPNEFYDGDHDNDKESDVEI
Human recombinant HDAC-3/NcoR2, sequence (Q9Y618 395-489 partner limits assumed): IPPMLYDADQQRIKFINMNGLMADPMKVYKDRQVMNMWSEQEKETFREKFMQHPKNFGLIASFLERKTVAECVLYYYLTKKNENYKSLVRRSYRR
T1 sequence (Q13547 whole entry): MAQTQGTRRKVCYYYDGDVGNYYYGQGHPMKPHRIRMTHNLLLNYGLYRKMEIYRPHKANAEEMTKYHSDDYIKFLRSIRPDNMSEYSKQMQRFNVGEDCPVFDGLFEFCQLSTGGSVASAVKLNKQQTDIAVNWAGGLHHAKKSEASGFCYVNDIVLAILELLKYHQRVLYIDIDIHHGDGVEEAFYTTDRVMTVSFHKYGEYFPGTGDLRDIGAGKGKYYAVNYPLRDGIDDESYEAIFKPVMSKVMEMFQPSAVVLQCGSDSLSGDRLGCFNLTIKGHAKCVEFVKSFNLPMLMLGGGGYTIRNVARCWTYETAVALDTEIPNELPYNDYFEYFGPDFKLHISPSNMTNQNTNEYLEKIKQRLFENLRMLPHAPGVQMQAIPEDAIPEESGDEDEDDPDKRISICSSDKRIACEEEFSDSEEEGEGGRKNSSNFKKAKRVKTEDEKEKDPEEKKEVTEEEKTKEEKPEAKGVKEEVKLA

Structure (SMILES)	tumor sphere viability (MDA-MB-231 tumor spheres; MTT)	sphere formation (MDA-MB-231 tumor spheres; co-culture 4 d, at higher concentrations)	programmed cell death (MDA-MB-231 cells [1]; IC50 concentration, 24 h)	early apoptotic cells (MDA-MB-231 cells [1]; IC50 concentration)	IC50 (MCF-7 cells)	IC50 [2]	IC50 [3]	anti-invasive property (% compared to control) (MDA-MB-231 cells [4])	IC50 (MDA-MB-231 tumor spheres; Homo sapiens, MDA-MB-231, spheres formed 4 d, treated 72 h, MTT)	sphere formation and spheres viability (MDA-MB-231 tumor spheres; co-culture 50 μM, 4 d in sphere culture conditions)	late apoptotic cell population (MDA-MB-231 cells [1]; 5 μM, control 1.13%)	early apoptotic cell population (MDA-MB-231 cells [1]; 5 μM, control 1.27%)
O=C(CCCCCCN1CCN(C(c2ccccc2)c2ccccc2)CC1)NO [Compound 7b, 7-(4-(diphenylmethyl)-piperazin-1-yl)-N-hydroxyheptanamide]	did not exhibit significant cytotoxic effects	inhibit sphere formation to some extent	slight increase	around 45%	> 100000 nM	267 ± 19 nM	619 ± 23 nM	–	–	–	–	–
O=C(CCCCCCCN1CCN(C(c2ccccc2)c2ccccc2)CC1)NO [Compound 8b, 8-(4-(diphenylmethyl)-piperazin-1-yl)-N-hydroxyoctanamide]	–	–	–	around 45%	39100 ± 2700 nM	207 ± 14 nM	408 ± 22 nM	59%	50000 nM	significantly inhibited	0.45%	4.13%
O=C(NO)c1ccc(CN2CCN(C(c3ccccc3)c3ccccc3)CC2)cc1 [Compound 9b, 4-(4-(diphenylmethyl)-piperazin-1-ylmethyl)-N-hydroxy-benzamide]	did not exhibit significant cytotoxic effects	–	–	around 45%	99500 ± 700 nM	3470 ± 121 nM	1470 ± 172 nM	did not reduce	–	–	–	–
